Where two headings read alike, the source gives them in different places.
Legend:
[1] = test system: INF-γ in CD4+ (CD8-) T cells; assay: INF-γ production by CD4+ (CD8-) T cells, flow cytometry; type: cell-based, human; conditions: for % Positive Cells (INF-γ immunopositive), d-FEN / INF-γ Titer, d-FEN: CD4+ (CD8-) T cells, Mean ± SEM; for activation at 0.05 µg/mL: Homo sapiens, T-cell
From the text: (§1) The T lymphocytes analyzed were obtained from 20 HIV+ patients (9 females and 11 males, 25-48 years of age). The patients were diagnosed as being HIV+ within the past 0.5-9 years, and 15 are being treated with antiviral drugs. The subjects' study identification number (indicates the order in which bloods were drawn), CD4+ and CD8+ counts (determined March, 1996, as part of the present study), age, sex, date of diagnosis, and pharmacotherapy are provided in Table 1.
(§2) The experimental protocol for this project is illustrated in Table A. Note that the cultures were exposed to two doses (5 and 50 ng/ml) of d-FEN in the mitogenesis assays, whereas only one dose (50 ng/ml) was used in the antifungal and cytokine release assays.
(§3) Cytokine Profiles. Peripheral mononuclear cells were isolated by the Ficoll-Hypaque method and washed twice with RPMI-1640 medium. Cell suspensions were made at 1×10^6 /ml and the cells activated with interleukin-2 (IL-2) for 18 h or 4 days at 37° C. under 5% CO^2 +95% air. Monensin (1 nM) then was added to the culture to block secretion of cytokines, and the cultures allowed to continue for another 3 h. The cells were washed twice with PBS+1% fetal calf serum (FCS) with 0.1% saponin+0.1% sodium azide, then washed once with PBS-1% FCS and stained with anti-cytokine MAb-FL conjugate for 30 min. Following two washes, the cells were analyzed by flow cytometry for production of IL-2, IFN-γ and TNF-α. The MAbs-FL conjugates were obtained from Pharmingen (San Diego, Calif.). Potential effects of on cytokine production were evaluated (a) as increases in the percentage of a T cell subset which produce the respective cytokine; and, (b) as increases in the amount of cytokine produced by each subset. The latter were analyzed as a shift of the cytokine histograms.
(§4) The data were analyzed by a one- or two-way analysis of variance (ANOVA) with repeated measures where appropriate ([…] version 1; Jandel, San Rafael, Calif.). Significant main effects were subjected to post hoc analysis using the Student-Newman Keuls All Pairwise Multiple Comparisons test or the Mann-Whitney U test.

INF-γ in CD8+ T cells = assay: INF-γ production by CD8+ T cells, flow cytometry; type: cell-based, human; conditions: 50 ng/ml, Mean ± SEM
From the text: as §1, §2, §3, §4

[2] = test system: TNF-α in CD4+ (CD8-) T cells; assay: TNF-α production by CD4+ (CD8-) T cells, flow cytometry; type: cell-based, human; conditions: for % Positive Cells (TNF-α immunopositive), d-FEN / TNF-α Titer, d-FEN: CD4+ (CD8-) T cells, Mean ± SEM; for inhibition at 0.05 µg/mL: Homo sapiens, T-cell
From the text: as §1, §2, §3, §4

[3] = cited from earlier work

CCN[C@@H](C)Cc1cccc(C(F)(F)F)c1 [d-FEN]
% Positive Cells (INF-γ immunopositive), d-FEN ([1]; 50 ng/ml, AIDS): 18 ± 2%
INF-γ Titer, d-FEN ([1]; 50 ng/ml, AIDS): 336 ± 45 geometric mean channel fluorescence
% Positive Cells (INF-γ immunopositive), d-FEN ([1]; 50 ng/ml, non-AIDS HIV+): 16 ± 2%
INF-γ Titer, d-FEN ([1]; 50 ng/ml, non-AIDS HIV+): 473 ± 37 geometric mean channel fluorescence
effect on INF-γ levels in words ([1]; 50 ng/ml, CD4+ T cells): did not have any significant effect
activation at 0.05 µg/mL ([1]; read-out: percent increase over VEH (printed under Titer, d-FEN), 50 ng/ml, CD4+ T cells, AIDS): 38%
activation at 0.05 µg/mL ([1]; read-out: percent increase over VEH (printed under Titer, d-FEN), 50 ng/ml, CD4+ T cells, non-AIDS): 33%
activation at 0.05 µg/mL ([1]; 50 ng/ml, CD4+ T cells, all patients, p=0.007, read-out: increase in the percent of INF-γ immunopositive T cells): 33 to 38%
% Positive Cells (INF-γ immunopositive), d-FEN (INF-γ in CD8+ T cells; AIDS): 40 ± 5%
INF-γ Titer, d-FEN (INF-γ in CD8+ T cells; AIDS): 764 ± 86 geometric mean channel fluorescence
% Positive Cells (INF-γ immunopositive), d-FEN (INF-γ in CD8+ T cells; non-AIDS HIV+): 47 ± 4%
INF-γ Titer, d-FEN (INF-γ in CD8+ T cells; non-AIDS HIV+): 964 ± 71 geometric mean channel fluorescence
% Positive Cells (TNF-α immunopositive), d-FEN ([2]; 50 ng/ml, AIDS): 31 ± 4%
TNF-α Titer, d-FEN ([2]; 50 ng/ml, AIDS): 156 ± 40 geometric mean channel fluorescence
% Positive Cells (TNF-α immunopositive), d-FEN ([2]; 50 ng/ml, non-AIDS HIV+): 69 ± 3%
TNF-α Titer, d-FEN ([2]; 50 ng/ml, non-AIDS HIV+): 310 ± 40 geometric mean channel fluorescence
effect on TNF-α level in words ([2]; 50 ng/ml, CD4+ T cells, AIDS): not in the AIDS CD4+ T cells
effect on number of TNF-α+ cells in words ([2]; 50 ng/ml, CD4+ T cells, AIDS): failed to affect
inhibition at 0.05 µg/mL ([2]; read-out: percent change of TNF-α titer vs VEH): 23%
inhibition at 0.05 µg/mL ([2]; read-out: reduction of the level of TNF-α): 23%
level in tissue and in plasma ([3]; 5 mg dextrofenfluramine per os): about 5 ng/ml
conversion to metabolite dextronorfenfluramine ([3]; upon administration, in vivo): partially converts upon administration to its metabolite dextronorfenfluramine
